Consider 4 compounds from patent publication US8906898B1, “Solid forms of ceftolozane” (Calixa Therapeutics, Inc., priority 2013, dated 2014).

Where a name gives a salt, the structure may show the parent alone. Where only a bound is given, the exact number is not on record here.

Common to all, as to assay type: physicochemical
The nature of series [1]: Stability of HPLC sample solution in refrigerated autosampler. Particulars: 1 mg/mL in 50 mM sodium perchlorate monohydrate, pH 4.00; 4±2° C. As to the method: (§1) Ceftolozane sulfate samples are prepared at a concentration of 1 mg/mL in diluent (50 mM sodium perchlorate monohydrate, pH 4.00). The system suitability standard (SST) is prepared at a concentration of 1 mg/mL of ceftolozane sulfate containing specified impurities in diluent (50 mM sodium perchlorate monohydrate, pH 4.00). Ceftolozane samples and SST are stored in a refrigerated autosampler tray at 4±2° C. and the samples are only stable for 5 hours at this condition.

Series [2] can be described thus: Comparative ceftolozane solvent stability test (purity by HPLC over 6 days).
Source text: This stability study was to evaluate stability and purity of ceftolozane sulfate in different solvent systems.
Sample 1 was a solvent system used to prepare crystalline ceftolozane sulfate from a mixture of isopropanol and water, as described in Example 2b (in the absence of ethanol). Sample 2 was solvent system used to obtain crystalline ceftolozane sulfate prepared according to the procedure of U.S. Pat. No. 7,129,232, wherein the crystals were precipitated from a mixture of ethanol and water.
Sample 1 and sample 2 were maintained for 6 days (as described in Example 2a, with continuous stirring). The purity of ceftolozane in the samples in each solvent system was measured by HPLC at day 0, day 3, and day 6.
as §1
Each sample is prepared in singlet and injected twice. Only impurities >LOD (0.008% Area) are integrated. The peak area percentage for each impurity >LOD is taken directly from the chromatogram. The mean % area of each peak is calculated and the absolute difference of any peak in the two replicates cannot be >0.030%. The purity and related substances are determined based on relative area % of each peak with respect to the total peak area of the sample. The total impurities are the sum of the individual impurities >LOD.

Series [3] can be described thus: Ceftolozane precipitation time as function of solution concentration (visual assessment). Particulars: pH 6.9, 2 to 8° C. On the procedure:
Sterile ceftolozane compositions suitable for combination with tazobactam to form a pharmaceutical composition are prepared as a lyophilized powder from the ceftolozane sulfate comprising solid Form 2 by compounding the drug substance with excipients into an aqueous solution, aseptically filtering the solution, lyophilizing the solution, then grinding, sieving and packaging the sterile lyophilized powder. The physical stability of the bulk solution at varying concentrations was examined and concentrations up to 150 mg ceftolozane free base/g solution were found suitable. All the registration batches were prepared using 150 mg/g ceftolozane concentration in the compounding solution and this concentration is proposed for commercial manufacturing. The resulting ceftolozane composition solubility was assessed in a concentration range proposed for manufacturing, in the presence of excipients intended for use in the ceftolozane formulation for use in the pharmaceutical composition. […] Samples were adjusted to pH 6.9, held at 2 to 8° C., and visually assessed for any precipitation.

Series [4] in a line: Water content by Karl Fischer volumetric titration with Stromboli oven. Particulars: samples equilibrated at 130° C., mean of triplicate. On the procedure: Water content of crystalline ceftolozane sulfate (prepared according to Example 2a as Form 1) was determined using a Mettler Toledo Karl Fischer volumetric titrator V30 that was connected to a Mettler Toledo Stromboli oven sample changer. AquaStar CombiTitrant 5 (EMD; Cat. No. 1.88005.1045; Lot No. 51096) was used as the titrant and the AquaStar Combi-Methanol (EMD; Cat. No 1.88009.1045; Lot No 53046) was used as the solvent. For data processing, the LabX software version 3.1.1.0 was employed. The Hydranal Water Standard for KF-Oven (Fluka; Cat. No. 34693; Lot No. SZBB010AV) that is expected to contain 5% water was weighed accurately in duplicate at or very close to 200 mg. The crystalline ceftolozane sulfate (15-18 mg) was weighed accurately in triplicate in separate 20 mL Stromboli sample vials. The vials were sealed with aluminum seals and rubber caps. A blank vial was prepared by sealing an empty 20-mL Stromboli vial with the aluminum seal and the rubber cap. The blank vial was used to determine the background moisture in air inside the vial. […] The KF titrator passed the accuracy test as the mean of the duplicate readings for the water standard was between the acceptance range of 4.80-5.20%. Water content results for crystalline ceftolozane sulfate derived from the triplicate weighings were recorded and the mean was reported. […]

The nature of series [5]: Gravimetric dynamic vapour sorption (moisture sorption/desorption, hygroscopicity). To be noted: decreasing RH, from reference point 30; 25° C. As to the method: Gravimetric dynamic vapor sorption data (FIG. 5) was obtained using a SMS DVS Intrinsic moisture sorption analyser, controlled by DVS Intrinsic Control software v1.0.0.30. The sample temperature was maintained at 25° C. by the instrument controls. The humidity was controlled by mixing streams of dry and wet nitrogen. The relative humidity was measured by a calibrated Rotronic probe, located near the sample. The weight change of the sample as a function of % RH was constantly monitored by the microbalance (accuracy ±0.005 mg). Approximately 40 mg of sample was placed in a tared mesh stainless basket under ambient conditions. Weight reference was established at the start of an experiment. Moisture sorption isotherm parameters were described as below: [table] The moisture sorption/desorption property of crystalline cefolozane sulfate form 2 is depicted in FIG. 5. A reversible hysteresis associated with around 23% w/w water between 0% and 90% relative humidity (RH) was observed. The DVS isotherm in FIG. 5 is consistent with the presence of two crystalline forms that can be interconverted as function of relative humidity. The presence of ceftolozane sulfate solid Form 1 and ceftolozane sulfate solid Form 2 in the sample tested to obtain the DVS isotherm in FIG. 5 was confirmed by a variable humidity XRPD (VH-XRPD) measurement, based on the XRPD diffraction angles disclosed for Form 1 and Form 2 of ceftolozane sulfate (as disclosed herein). Referring to DVS the isotherm plot in FIG. 5, the lower curve corresponds to ceftolozane sulfate in solid Form 2, and the upper curve is corresponds to ceftolozane sulfate in solid Form 1. The Y-axis of the DVS plot is change in mass. The X-axis of DVS plot refers to the percent relative humidity (RH) of the sample. Reference point 10 in FIG. 5 is the starting point of Form 2 in DVS experiment. The lower portion of the curve in FIG. 5 was obtained by measuring the change in mass of a ceftolozane sulfate sample in solid Form 2 while increasing relative humidity (RH) in the sample, starting at reference point 10 of the lower curve from reference point 10 (Form 2) and moving toward reference point 20 (Form 1). Based on the data collected, the ceftolozane sulfate in the sample converted from Form 2 to Form 1 when the sample was exposed to conditions between 50% RH (reference point 12) and 70% RH (reference point 15). Referring again to the lower curve in FIG. 5, ceftolozane sulfate in Form 1 is present in the sample from 70% RH to reference point 20, where the sample is ceftolozane sulfate is in crystalline Form 1. Referring to the upper curve in FIG. 5, from reference point 20 to reference point 30, the ceftolozane sulfate in the sample material remains as solid Form 1. From reference point 30 to around 20% RH (reference point 35 on the upper curve), the crystalline form of ceftolozane sulfate in the material transforms from Form 1 to Form 2. As the relative humidity of the sample was dropped below about 20% on the upper curve between reference point 30 and reference point 40 (0% RH), the ceftolozane sulfate became more amorphous, with some residual Form 2 remaining at reference point 40. […] Hygroscopicity of ceftolozane sulfate, Form 2 was assessed using the SMS DVS Intrinsic moisture sorption analyzer equipped with a calibrated Rotronic probe. […]

As to `Cn1c(N)c(NC(=O)NCCN)c[n+]1CC1=C(C(=O)O)N2C(=O)[C@@H](NC(=O)/C(=N\OC(C)(C)C(=O)O)c3nsc(N)n3)[C@H]2SC1` [Ceftolozane sulfate, 5-amino-4-{[(2-aminoethyl)carbamoyl]amino}-2-{[(6R,7R)-7-({(2Z)-2-(5-amino-1,2,4-thiadiazol-3-yl)-2-[(1-carboxy-1-methylethoxy)imino]acetyl}amino)-2-carboxy-8-oxo-5-thia-1-azabicyclo[4.2.0]oct-2-en-3-yl]methyl}-1-methyl-1H-pyrazolium monosulfate], the “time the sample solution is stable” value in series [1] amounted to 5 h.

In the case of `Cn1c(N)c(NC(=O)NCCN)c[n+]1CC1=C(C(=O)[O-])N2C(=O)[C@@H](NC(=O)/C(=N\OC(C)(C)C(=O)O)c3nsc(N)n3)[C@H]2SC1` [Ceftolozane, (6R,7R)-3-[(5-amino-4-{[(2-aminoethyl)carbamoyl]amino}-1-methyl-1H-pyrazol-2-ium-2-yl)methyl]-7-({(2Z)-2-(5-amino-1,2,4-thiadiazol-3-yl)-2-[(1-carboxy-1-methylethoxy)imino]acetyl}amino)-8-oxo-5-thia-1-azabicyclo[4.2.0]oct-2-ene-2-carboxylate], the “purity of ceftolozane after 6-day stability test” value in series [2] (aqueous ethanol solution, methods of U.S. Pat. No. 7,129,232) was “about 68%”; in series [2] (process using isopropanol (Example 2a), liquid phase), “about 82%”. Also, in series [2] (aqueous ethanol solution, precipitation per U.S. Pat. No. 7,129,232), the “purity of ceftolozane at start of 6-day stability test” value was “about 97%”. Also, the “Time to Precipitate” value in series [3] (ceftolozane sulfate 149 mg/g (free base 130 mg/g), with excipients) is more than 24 hours^a; in series [3] (ceftolozane sulfate 172 mg/g (free base 150 mg/g), with excipients) it was more than 48 h; in series [3] (ceftolozane sulfate 178 mg/g (free base 156 mg/g), last observation at 24 hour), more than 24 hours^1); in series [3] (ceftolozane sulfate 189 mg/g (free base 165 mg/g), with excipients), less than 18 h; in series [3] (ceftolozane sulfate 200 mg/g (free base 174 mg/g), with excipients) it was 2 h.

For `Cn1c(N)c(NC(=O)NCCN)c[n+]1CC1=C(C(=O)O)N2C(=O)[C@@H](NC(=O)/C(=N\OC(C)(C)C(=O)O)c3nsc(N)n3)[C@H]2SC1.O=S(=O)([O-])O` [Example 1, 7β-[(Z)-2-(5-amino-1,2,4-thiadiazol-3-yl)-2-(1-carboxy-1-methylethoxyimino)acetamido]-3-{3-amino-4-[3-(2-aminoethyl)ureido]-2-methyl-1-pyrazolio}methyl-3-cephem-4-carboxylic acid hydrogen sulfate], the “water content by weight” value in series [4] is “about 26.3%”.

On to `Cn1c(N)c(NC(=O)NCCN)c[n+]1CC1=C(C(=O)O)N2C(=O)[C@@H](NC(=O)/C(=N\OC(C)(C)C(=O)O)c3nsc(N)n3)[C@H]2SC1` [ceftolozane sulfate Form 1], for which, in series [5], the “relative humidity down to which Form 1 transforms to Form 2” value was “around 20 % RH”.
